Patent US20250170114A1, “METHODS OF TREATMENT USING T-TYPE CALCIUM CHANNEL MODULATORS” (Praxis Precision Medicines, Inc., priority 2022, published 2025)

Legend:
participants with ET [1] = experiment: Phase 2 trial: Patient Global Impression of Change (PGI-C); type: in vivo, human; conditions: Part B RWD (RWAS), Day 70, study drug group, n = 5, vs randomization baseline
Text: The Patient Global Impression of Change (PGI-C) assesses the participant's improvement (or worsening). The participant is required to assess their condition relative to Baseline (Day 0) on a 7-point scale from 1 (very much improved) to 7 (very much worse). The assessment is made independent of whether the participant believes the improvement/worsening was drug-related or not. In some embodiments, the method results in a reduction in PGI-C score compared to baseline. The Columbia-Suicide Severity Rating Scale (C-SSRS) assesses suicidal ideation and behavior in participants during participation in a clinical trial of centrally-acting drugs. The C-SSRS is composed of 5 questions addressing suicidal behavior and 5 questions addressing suicidal ideation, with sub-questions assessing the severity. The tool should be administered via interview with the participant (by a trained operator/interviewer) and takes about 5 to 10 minutes to complete. In some embodiments, the method results in a reduction in suicidal ideation and/or behavior as compared to suicidal ideation and/or behavior prior to treatment. In other embodiments, the method results in no change in the C-SSRS score of a patient as compared to the C-SSRS score prior to treatment. Key safety measures included clinical laboratory evaluations, 12-lead ECG, C-SSRS, and vital signs. Key efficacy assessments included the TETRAS Performance subscale, TETRAS Upper Limb using accelerometry, CGI, and PGI-C. Blood samples were obtained for the determination of study drug plasma concentrations using a validated bioanalytical method and may also be used for method development and/or metabolite characterization. In both phases, key safety measures included clinical laboratory evaluations, 12-lead ECG, C-SSRS, and vital signs. Key efficacy assessments included the TETRAS Performance subscale, TETRAS Upper Limb using accelerometry, CGI, PGI-C, TETRAS ADL Subscale, QUEST, BDI-II, and BAI. Blood samples were obtained for the determination of study drug and metabolite plasma concentrations.

participants with ET [2] = experiment: Phase 2 trial Part B: Beck Depression Inventory (BDI-II); type: in vivo, human
Method: The Beck Depression Inventory (BDI-II) is a list of 21 common symptoms of depression (Beck et al 1996). Each item is scored on a 4-point Likert scale (range of scores is 0 through 3). The time frame for assessment is the […] or since the last assessment. The BDI-II is divided into 2 subscales: Affective and Somatic. The subscale scores are calculated as the sum of the items comprising each subscale. The total score is calculated as the sum of all 21 items and ranges from 0 to 63. A total score of 0 to 13 indicates minimal depressive symptoms. A total score of 14 to 19 indicates mild depressive symptoms. A total score of 20 to 28 indicates moderate depressive symptoms. A total score of 29 to 63 indicates severe depressive symptoms. The BDI-II is assessed at screening to exclude participants with moderate to severe depressive symptoms. […] In both phases, key safety measures included clinical laboratory evaluations, 12-lead ECG, C-SSRS, and vital signs. Key efficacy assessments included the TETRAS Performance subscale, TETRAS Upper Limb using accelerometry, CGI, PGI-C, TETRAS ADL Subscale, QUEST, BDI-II, and BAI. Blood samples were obtained for the determination of study drug and metabolite plasma concentrations.

participants with ET [3] = experiment: Phase 2 trial: Clinical Global Impression-Improvement (CGI-I); type: in vivo, human
Text: The Clinical Global Impression-Improvement (CGI-I) (Guy 1976) assesses the clinician's impression of the participant's functioning prior to and after initiating study medication. The clinician should use his/her total clinical experience with this patient population and rate the current severity of the participant's essential tremor symptoms on a 7-point scale from 1 (Normal, not at all ill) to 7 (Among the most extremely ill patients). Accordingly, in some embodiments, the methods of the present invention result in a decrease in CGI-I score compared to baseline, e.g., prior to treatment. Key safety measures included clinical laboratory evaluations, 12-lead ECG, C-SSRS, and vital signs. Key efficacy assessments included the TETRAS Performance subscale, TETRAS Upper Limb using accelerometry, CGI, and PGI-C. Blood samples were obtained for the determination of study drug plasma concentrations using a validated bioanalytical method and may also be used for method development and/or metabolite characterization. In both phases, key safety measures included clinical laboratory evaluations, 12-lead ECG, C-SSRS, and vital signs. Key efficacy assessments included the TETRAS Performance subscale, TETRAS Upper Limb using accelerometry, CGI, PGI-C, TETRAS ADL Subscale, QUEST, BDI-II, and BAI. Blood samples were obtained for the determination of study drug and metabolite plasma concentrations.

[4] = test system: harmaline-induced hypolocomotion in male SD rats; experiment: Co-dosing with propranolol in rat harmaline-induced hypolocomotion (open field, 30 min); type: in vivo; conditions: harmaline 30 mg/kg, 3 mg/kg study drug alone (without propranolol), identical study
Method: Two harmaline model studies using sLMA as one ADL-like end point were carried out. In each of two sLMA studies, male SD rats were grouped into five groups according to the following table. In the first study, Groups 3, 4, and 5 received 3 mg/kg of propranolol and the compound of Formula (I) (the study drug) at the doses of 1 mg/kg or 3 mg/kg. In the second study, Groups 3, 4, and 5, received 10 mg/kg of propranolol and the study drug at the doses of 1 mg/kg or 3 mg/kg.
Rats were then subjected to an open field test for 30 minutes. Total distance travelled was measured.

participants with ET [5] = experiment: Phase 2 trial Part B: Quality of Life in Essential Tremor Questionnaire (QUEST); type: in vivo, human; conditions: pre-dose baseline to Day 56, participants receiving study drug
Text: In both phases, key safety measures included clinical laboratory evaluations, 12-lead ECG, C-SSRS, and vital signs. Key efficacy assessments included the TETRAS Performance subscale, TETRAS Upper Limb using accelerometry, CGI, PGI-C, TETRAS ADL Subscale, QUEST, BDI-II, and BAI. Blood samples were obtained for the determination of study drug and metabolite plasma concentrations.

[6] = test system: harmaline-induced motor impairment in male SD rats; experiment: Wire grip test with harmaline in SD rats; type: in vivo, rat; conditions: harmaline 30 mg/kg, dose of 1, 3 and 10 mg/kg
Text: Each of six groups of male SD rats were subjected to a tremor assessment, followed by three ADL-like measures including open field test, rotarod test, and wire grip test after receiving doses of either vehicle, Formula (I), or propranolol, followed by either saline or harmaline, as outlined below in Table 22 below.
Fifteen minutes after the rotarod test, rats were subjected to a wire grip test using an 80 cm long and 7 mm in diameter wire placed at a height of 50 cm.

[7] = Part B OLT (FAS), Day 7, n = 13
[8] = Part B OLT (FAS), Day 21, n = 12
[9] = Part B OLT (FAS), Day 42, n = 10
[10] = Part B RWD (RWAS), Day 56, Study drug, n = 6
[11] = Part B RWD (RWAS), Day 70, Study drug, n = 5

CC(C)(C)NC(=O)CN1CCC(CNC(=O)c2cc(F)cc(Cl)c2)CC1.Cl [Study drug]
PGI-C Score 3 minimally improved (participants with ET [1]): 1 (20.0) n (%) | PGI-C Score 4 no change (participants with ET [1]): 3 (60.0) n (%) | PGI-C Score 6 much worse (participants with ET [1]): 1 (20.0) n (%) | BDI-II Depressive Symptoms Mild (14-19) (participants with ET [2]; [7]): 1 n (%) | BDI-II Depressive Symptoms Minimal (0-13) (participants with ET [2]; [7]): 12 n (%) | BDI-II Depressive Symptoms Moderate (20-28) (participants with ET [2]; [7]): 0 n (%) | BDI-II Depressive Symptoms Severe (29-63) (participants with ET [2]; [7]): 0 n (%) | BDI-II Depressive Symptoms Mild (14-19) (participants with ET [2]; [8]): 1 n (%) | BDI-II Depressive Symptoms Minimal (0-13) (participants with ET [2]; [8]): 11 n (%) | BDI-II Depressive Symptoms Moderate (20-28) (participants with ET [2]; [8]): 0 n (%) | BDI-II Depressive Symptoms Severe (29-63) (participants with ET [2]; [8]): 0 n (%) | BDI-II Depressive Symptoms Mild (14-19) (participants with ET [2]; [9]): 0 n (%) | BDI-II Depressive Symptoms Minimal (0-13) (participants with ET [2]; [9]): 10 n (%) | BDI-II Depressive Symptoms Moderate (20-28) (participants with ET [2]; [9]): 0 n (%) | BDI-II Depressive Symptoms Severe (29-63) (participants with ET [2]; [9]): 0 n (%) | BDI-II Depressive Symptoms Mild (14-19) (participants with ET [2]; [10]): 0 n (%) | BDI-II Depressive Symptoms Minimal (0-13) (participants with ET [2]; [10]): 6 n (%) | BDI-II Depressive Symptoms Moderate (20-28) (participants with ET [2]; [10]): 0 n (%) | BDI-II Depressive Symptoms Severe (29-63) (participants with ET [2]; [10]): 0 n (%) | BDI-II Depressive Symptoms Mild (14-19) (participants with ET [2]; [11]): 1 n (%) | BDI-II Depressive Symptoms Minimal (0-13) (participants with ET [2]; [11]): 4 n (%) | BDI-II Depressive Symptoms Moderate (20-28) (participants with ET [2]; [11]): 0 n (%) | BDI-II Depressive Symptoms Severe (29-63) (participants with ET [2]; [11]): 0 n (%) | change in BDI-II scores (participants with ET [2]; Part B, pre-dose baseline to Day 70): no clinically meaningful change over time | CGI-I Score 5 minimally worse (participants with ET [3]; Part B OLT (FAS), Day 7, n = 12): 1 n (%) | CGI-I Score 5 minimally worse (participants with ET [3]; Part B RWD (RWAS), Day 70, study drug group, n = 5, vs randomization baseline): 1 n (%) | harmaline-induced hypolocomotion (traveling distance in 0-30 minutes) vs harmaline and vehicle [4]: not significantly different | Quality of life measured by QUEST (participants with ET [5]): improved | latency to fall in wire grip test vs vehicle and harmaline only ([6]; listed as Formula (I)): significantly attenuated | latency to fall in wire grip test vs vehicle and harmaline only ([6]; listed as compound of Formula (I)): significantly attenuated decrease in fall off latency
